Where two headings read alike, the source gives them in different places.
Assays:
[1] = cited from earlier work
[2] = tested on: patients with uncontrolled gout
Text: As used herein, an “adverse event” or “AE” refers to any untoward medical occurrence associated with the use of a drug in humans, whether it is considered drug-related or not. An AE or suspected adverse reaction is considered a “serious adverse event” or “SAE” if, in the view of either the Investigator or Sponsor, it results in any of the following outcomes: (1) Death, (2) Life-threatening: an AE is considered “life-threatening” if, in the view of either the Investigator or Sponsor, its occurrence places the subject or subject at immediate risk of death. […] (5) A congenital anomaly/birth defect; (6) Important medical events that may not result in death, be life-threatening, or require hospitalization may be considered serious when, based upon appropriate medical judgment, they may jeopardize the patient or subject and may require medical or surgical intervention to prevent one of the outcomes listed in this definition.
Safety Variables: Safety was assessed via AE and concomitant medication use monitoring, physical examinations, vital signs, clinical safety laboratory evaluations (hematology, chemistry, urine uric acid:creatinine ratio), pregnancy testing (if applicable), electrocardiograms (ECGs), and AEs of special interest (i.e., IRs, anaphylaxis, gout flares, and cardiovascular events).
AEs of special interest may include IRs, anaphylaxis, gout flares, and cardiovascular events.
Severity in accordance with the disclosure is reported according to the following: Grade 1 (Mild)—No interference with daily activity. Grade 2 (Moderate)—Some interference with daily activity but medical intervention not required (e.g., doctor visit and/or medication); over the counter medicine permitted. Grade 3 (Severe)—Prevents daily activity and requires medical intervention (e.g., doctor visit and/or medication). Grade 4 (Potentially Life-threatening)—Emergency room visit or hospitalization.
An AE was defined as any untoward event, whether or not it was considered related to the use of pegloticase or MTX. Any worsening (i.e., any clinically significant adverse change in frequency or intensity) of a preexisting condition which was temporally associated with the use of pegloticase or MTX was also considered an AE. Abnormal laboratory values or test results constitute AEs only if they induce clinical signs or symptoms or require therapy, and were recorded on the AE CRF under the signs, symptoms or were associated with diagnoses associated with them. Screening conditions were not considered AE; however, worsening of a preexisting condition may be considered an AE. AEs were collected starting at the baseline, Visit 1.
TEAEs during the Pegloticase+IMM Period were defined as events that occur after the start of the first pegloticase infusion through 30 days after the last dose of pegloticase and/or MTX or placebo for MTX (whichever was later). TEAEs that occur during the MTX Tolerability Assessment Period prior to randomization (Weeks −6 to −4) was summarized separately for the MTX population. […] AEs that occur more than 30 days after the last dose of pegloticase and/or MTX or placebo for MTX through the 6-month follow-up visit was also summarized.

CN(Cc1cnc2nc(N)nc(N)c2n1)c1ccc(C(=O)N[C@@H](CCC(=O)O)C(=O)O)cc1 [MTX, methotrexate]
12%: Nausea and vomiting ([1]; RA)
1.0 Events/PY of MTX: Chronic Sinusitis, Incidence Rate ([2]; mITT N = 14, PY of MTX = 1.0) | Cough, Incidence Rate ([2]; mITT N = 14, PY of MTX = 1.0) | Dental Caries, Incidence Rate ([2]; mITT N = 14, PY of MTX = 1.0) | Diarrhoea, Incidence Rate ([2]; mITT N = 14, PY of MTX = 1.0) | Dry Eye, Incidence Rate ([2]; mITT N = 14, PY of MTX = 1.0) | Eye Disorders, Incidence Rate ([2]; mITT N = 14, PY of MTX = 1.0) | Headache, Incidence Rate ([2]; mITT N = 14, PY of MTX = 1.0) | Leukopenia, Incidence Rate ([2]; mITT N = 14, PY of MTX = 1.0) | Nasopharyngitis, Incidence Rate ([2]; mITT N = 14, PY of MTX = 1.0) | Nervous System Disorders, Incidence Rate ([2]; mITT N = 14, PY of MTX = 1.0) | Neutropenia, Incidence Rate ([2]; mITT N = 14, PY of MTX = 1.0) | Pruritus, Incidence Rate ([2]; mITT N = 14, PY of MTX = 1.0) | Respiratory, Thoracic And Mediastinal Disorders, Incidence Rate ([2]; mITT N = 14, PY of MTX = 1.0) | Skin And Subcutaneous Tissue Disorders, Incidence Rate ([2]; mITT N = 14, PY of MTX = 1.0)
(6.7) %: Blood And Lymphatic System Disorders, % ([2]; ITT N = 15) | Chronic Sinusitis, % ([2]; ITT N = 15) | Cough, % ([2]; ITT N = 15) | Dental Caries, % ([2]; ITT N = 15) | Diarrhoea, % ([2]; ITT N = 15) | Dry Eye, % ([2]; ITT N = 15) | Eye Disorders, % ([2]; ITT N = 15) | Headache, % ([2]; ITT N = 15) | Leukopenia, % ([2]; ITT N = 15) | Nasopharyngitis, % ([2]; ITT N = 15) | Nervous System Disorders, % ([2]; ITT N = 15) | Neutropenia, % ([2]; ITT N = 15) | Pruritus, % ([2]; ITT N = 15) | Respiratory, Thoracic And Mediastinal Disorders, % ([2]; ITT N = 15) | Skin And Subcutaneous Tissue Disorders, % ([2]; ITT N = 15)
0.9 Events/PY of MTX: Chronic Sinusitis, Incidence Rate ([2]; ITT N = 15, PY of MTX = 1.1) | Cough, Incidence Rate ([2]; ITT N = 15, PY of MTX = 1.1) | Dental Caries, Incidence Rate ([2]; ITT N = 15, PY of MTX = 1.1) | Diarrhoea, Incidence Rate ([2]; ITT N = 15, PY of MTX = 1.1) | Dry Eye, Incidence Rate ([2]; ITT N = 15, PY of MTX = 1.1) | Eye Disorders, Incidence Rate ([2]; ITT N = 15, PY of MTX = 1.1) | Headache, Incidence Rate ([2]; ITT N = 15, PY of MTX = 1.1) | Leukopenia, Incidence Rate ([2]; ITT N = 15, PY of MTX = 1.1) | Nasopharyngitis, Incidence Rate ([2]; ITT N = 15, PY of MTX = 1.1) | Nervous System Disorders, Incidence Rate ([2]; ITT N = 15, PY of MTX = 1.1) | Neutropenia, Incidence Rate ([2]; ITT N = 15, PY of MTX = 1.1) | Pruritus, Incidence Rate ([2]; ITT N = 15, PY of MTX = 1.1) | Respiratory, Thoracic And Mediastinal Disorders, Incidence Rate ([2]; ITT N = 15, PY of MTX = 1.1) | Skin And Subcutaneous Tissue Disorders, Incidence Rate ([2]; ITT N = 15, PY of MTX = 1.1)
(7.1) %: Blood And Lymphatic System Disorders, % ([2]; mITT N = 14) | Chronic Sinusitis, % ([2]; mITT N = 14) | Cough, % ([2]; mITT N = 14) | Dental Caries, % ([2]; mITT N = 14) | Diarrhoea, % ([2]; mITT N = 14) | Dry Eye, % ([2]; mITT N = 14) | Eye Disorders, % ([2]; mITT N = 14) | Headache, % ([2]; mITT N = 14) | Leukopenia, % ([2]; mITT N = 14) | Nasopharyngitis, % ([2]; mITT N = 14) | Nervous System Disorders, % ([2]; mITT N = 14) | Neutropenia, % ([2]; mITT N = 14) | Pruritus, % ([2]; mITT N = 14) | Respiratory, Thoracic And Mediastinal Disorders, % ([2]; mITT N = 14) | Skin And Subcutaneous Tissue Disorders, % ([2]; mITT N = 14)
> 50%: Leukopenia ([1]; renal transplant)
6.0 Events/PY of MTX: Gastrointestinal Disorders, Incidence Rate ([2]; mITT N = 14, PY of MTX = 1.0) | Gout, Incidence Rate ([2]; mITT N = 14, PY of MTX = 1.0) | Metabolism And Nutrition Disorders, Incidence Rate ([2]; mITT N = 14, PY of MTX = 1.0)
28%: Leukopenia ([1]; RA)
20%: Increased susceptibility to infection ([1]; renal transplant)
(14.3) %: Infections And Infestations, % ([2]; mITT N = 14)
< 1%: Increased susceptibility to infection ([1]; RA)
2: Infections And Infestations, Total Events [2] | Infections And Infestations, Total Events ([2]; mITT N = 14)
20.0 Events/PY of MTX: Any TEAEs, Incidence Rate ([2]; mITT N = 14, PY of MTX = 1.0)
(13.3) %: Infections And Infestations, % [2]
1.8 Events/PY of MTX: Infections And Infestations, Incidence Rate [2] | Abdominal Discomfort, Incidence Rate ([2]; ITT N = 15, PY of MTX = 1.1) | Blood And Lymphatic System Disorders, Incidence Rate ([2]; ITT N = 15, PY of MTX = 1.1) | Nausea, Incidence Rate ([2]; ITT N = 15, PY of MTX = 1.1)
0.5%: neoplasia (lymphoma) ([1]; renal transplant)
2.0 Events/PY of MTX: Abdominal Discomfort, Incidence Rate ([2]; mITT N = 14, PY of MTX = 1.0) | Blood And Lymphatic System Disorders, Incidence Rate ([2]; mITT N = 14, PY of MTX = 1.0) | Infections And Infestations, Incidence Rate ([2]; mITT N = 14, PY of MTX = 1.0) | Nausea, Incidence Rate ([2]; mITT N = 14, PY of MTX = 1.0)
3%: neoplasia (other than lymphoma) ([1]; renal transplant)
5.5 Events/PY of MTX: Gastrointestinal Disorders, Incidence Rate ([2]; ITT N = 15, PY of MTX = 1.1) | Gout, Incidence Rate ([2]; ITT N = 15, PY of MTX = 1.1) | Metabolism And Nutrition Disorders, Incidence Rate ([2]; ITT N = 15, PY of MTX = 1.1)
